Experimental data as given in patent US11787796B2, “Plasma Kallikrein inhibitors and uses thereof” (Takeda Pharmaceutical Company Limited, priority 2019, dated 2023).

These molecules were tested against human activated kallikrein enzyme (Homo sapiens (Human), UniProt P03952) (assay: Plasma kallikrein inhibition assay with fluorogenic peptide substrate, 500 pM activated kallikrein format). Settings: 500 pM activated kallikrein; 300 uM Pro-Phe-Arg-7-amido-4-methylcoumarin substrate; 30 min preincubation, 10 min reaction at RT; read-out: Primary Dose Response Assay: Average EC50.
Chain of human activated kallikrein enzyme (P03952 391-638): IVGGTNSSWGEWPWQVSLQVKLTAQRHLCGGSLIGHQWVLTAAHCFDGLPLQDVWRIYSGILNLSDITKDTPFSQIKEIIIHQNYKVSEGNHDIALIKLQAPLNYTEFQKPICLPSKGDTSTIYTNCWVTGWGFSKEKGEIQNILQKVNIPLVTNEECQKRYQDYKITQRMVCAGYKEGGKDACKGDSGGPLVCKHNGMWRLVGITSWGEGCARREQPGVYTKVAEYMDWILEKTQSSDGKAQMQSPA
Chain of human activated kallikrein enzyme (P03952 20-390 partner): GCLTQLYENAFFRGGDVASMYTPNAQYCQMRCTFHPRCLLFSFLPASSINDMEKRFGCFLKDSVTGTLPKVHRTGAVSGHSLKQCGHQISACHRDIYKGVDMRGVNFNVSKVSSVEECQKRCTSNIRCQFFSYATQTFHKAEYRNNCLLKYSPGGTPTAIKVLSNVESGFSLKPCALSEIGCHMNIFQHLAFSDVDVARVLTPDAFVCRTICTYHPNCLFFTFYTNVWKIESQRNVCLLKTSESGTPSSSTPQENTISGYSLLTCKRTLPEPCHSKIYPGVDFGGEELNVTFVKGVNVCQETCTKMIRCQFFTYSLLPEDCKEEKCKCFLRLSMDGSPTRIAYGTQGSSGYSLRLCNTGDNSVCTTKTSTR
Assay type: biochemical
Experimental: Example compounds were evaluated for inhibition of the human activated kallikrein enzyme in two formats of an assay employing a fluorogenic peptide substrate. In one assay format, the concentrations of reagents were as follows: 20 mM Tris pH 7.5, 1 mM EDTA, 150 mM sodium chloride, 0.1% PEG-400, 0.1% Triton X-100, […], 300 uM Pro-Phe-Arg-7-amido-4-methylcoumarin substrate. Prior to reaction initiation with substrate, enzyme and inhibitors were preincubated for 30 min at RT. After initiation with substrate, reactions were incubated for 10 min at RT and fluorescence emission at 460 nm from 380 nm excitation measured with a microplate reader. In another assay format, the concentrations of reagents were as follows: 20 mM Tris pH 7.5, 1 mM EDTA, 150 mM sodium chloride, 0.1% PEG-400, 0.1% Triton X-100, 5 pM activated kallikrein enzyme, 300 uM Pro-Phe-Arg-7-amido-4-methylcoumarin substrate. Prior to reaction initiation with substrate, enzyme and inhibitors were preincubated for 30 min at RT. After initiation with substrate, reactions were incubated for 18 h at RT and fluorescence emission at 460 nm from 380 nm excitation measured with a microplate reader.
Table II provides the results of the assay in the format with 500 pM activated kallikrein assay.
Table III provides comparative plasma kallikrein inhibition potency in the assay format with 500 pM activated kallikrein assay (described in detail in the preceding example).
For `COc1ccc(S(=O)(=O)N(C)C)c(CNC(=O)c2cn(Cc3cn4cc(C5CC5)ccc4n3)nn2)c1F` [Example I-57, 1-((6-cyclopropylimidazo[1,2-a]pyridin-2-yl)methyl)-N-(6-(N,N-dimethylsulfamoyl)-2-fluoro-3-methoxybenzyl)-1H-1,2,3-triazole-4-carboxamide], the EC50 was 1 to 10 nM.
`CCOC(=O)C(C)(C)Cc1cc(C2CC2)cn2cc(Cn3cc(C(=O)NCc4c(-n5cnnn5)ccc(OC)c4F)nn3)nc12` [Example I-85, ethyl 3-(6-cyclopropyl-2-((4-((2-fluoro-3-methoxy-6-(1H-tetrazol-1-yl)benzyl)carbamoyl)-1H-1,2,3-triazol-1-yl)methyl)imidazo[1,2-a]pyridin-8-yl)-2,2-dimethylpropanoate] gave an EC50 of no more than 1 nM.
With `COc1ccc(-n2cnnn2)c(CNC(=O)c2cn(Cc3cn4cc(C5CC5)cc(C(O)C5COC5)c4n3)nn2)c1F` (centres unmarked) [Example I-27, 1-((6-cyclopropyl-8-(hydroxy(oxetan-3-yl)methyl)imidazo[1,2-a]pyridin-2-yl)methyl)-N-(2-fluoro-3-methoxy-6-(1H-tetrazol-1-yl)benzyl)-1H-1,2,3-triazole-4-carboxamide] the EC50 was no more than 1 nM.
In the case of `COc1ccc(-n2cnnn2)c(CNC(=O)c2cn3c(n2)CCC3c2cn3cc(C4CC4)ccc3n2)c1F` (centres unmarked) [Example I-22, 5-(6-cyclopropylimidazo[1,2-a]pyridin-2-yl)-N-(2-fluoro-3-methoxy-6-(1H-tetrazol-1-yl)benzyl)-6,7-dihydro-5H-pyrrolo[1,2-a]imidazole-2-carboxamide], the EC50 is reported as no more than 1 nM.
In the case of `O=C(NCc1ccc2sccc2c1)c1cn(Cc2cn3cc(C4CC4)ccc3n2)nn1` [Example I-84, N-(benzo[b]thiophen-5-ylmethyl)-1-((6-cyclopropylimidazo[1,2-a]pyridin-2-yl)methyl)-1H-1,2,3-triazole-4-carboxamide], the EC50 is reported as 100 to 2000 nM.
`COc1ccc(-c2c[nH]nn2)c(CNC(=O)c2cn(Cc3cn4cc(C5CC5)ccc4n3)nn2)c1F` [Example I-49, 1-((6-cyclopropylimidazo[1,2-a]pyridin-2-yl)methyl)-N-(2-fluor-3-methoxy-6-(1H-1,2,3-triazol-4-yl)benzyl)-1H-1,2,3-triazole-4-carboxamide] showed an EC50 of 10 to 100 nM.
Molecule `NCc1cc(C2CC2)cn2cc(Cn3cc(C(=O)NC4CCc5c4ccnc5N)nn3)nc12` (centres unmarked) [Example I-10, N-(1-amino-6,7-dihydro-5H-cyclopenta[c]pyridin-5-yl)-1-((8-(aminomethyl)-6-cyclopropylimidazo[1,2-a]pyridin-2-yl)methyl)-1H-1,2,3-triazole-4-carboxamide] has an EC50 of no more than 1 nM.
Molecule `COc1ccc([S+](C)[O-])c(CNC(=O)c2cn(Cc3cn4cc(C5CC5)ccc4n3)nn2)c1F` (centres unmarked) [Example I-58, 1-((6-cyclopropylimidazo[1,2-a]pyridin-2-yl)methyl)-N-(2-fluoro-3-methoxy-6-(methylsulfinyl)benzyl)-1H-1,2,3-triazole-4-carboxamide] has an EC50 of 2000 to 7100 nM.
In the case of `O=C(NCc1cc(Cl)ccc1-n1cnnn1)c1cnn(Cc2cn3cc(C4CC4)ccc3n2)c1` [Example I-125, N-(5-chloro-2-(1H-tetrazol-1-yl)benzyl)-1-((6-cyclopropylimidazo[1,2-a]pyridin-2-yl)methyl)-1H-pyrazole-4-carboxamide], the EC50 is reported as 1 to 10 nM.
`O=C(NCc1c(-n2cnnn2)ccc(OC(F)(F)F)c1F)c1cn(Cc2cn3cc(C4CC4)ccc3n2)nn1` [Example I-98, 1-((6-cyclopropylimidazo[1,2-a]pyridin-2-yl)methyl)-N-(2-fluoro-6-(1H-tetrazol-1-yl)-3-(trifluoromethoxy)benzyl)-1H-1,2,3-triazole-4-carboxamide] showed an EC50 of 100 to 2000 nM.
Work on `COc1ccnc(CNC(=O)c2cn(Cc3cn4cc(C5CC5)cc(CCN(C)C)c4n3)nn2)c1F` [Example I-138, 1-((6-cyclopropyl-8-(2-(dimethylamino)ethyl)imidazo[1,2-a]pyridin-2-yl)methyl)-N-((3-fluoro-4-methoxypyridin-2-yl)methyl)-1H-1,2,3-triazole-4-carboxamide] yielded an EC50 of 1 to 10 nM.
`COc1ccc(-c2cc3ccccn3n2)c(CNC(=O)c2cn(Cc3cn4cc(C5CC5)ccc4n3)nn2)c1F` [Example I-63, 1-((6-cyclopropylimidazo[1,2-a]pyridin-2-yl)methyl)-N-(2-fluoro-3-methoxy-6-(pyrazolo[1,5-a]pyridin-2-yl)benzyl)-1H-1,2,3-triazole-4-carboxamide] gave an EC50 of 100 to 2000 nM.
With `COc1ccc(C#N)c(CNC(=O)c2cnn(Cc3cn4cc(C5CC5)cc(C#N)c4n3)c2)c1F` [Example I-118, N-(6-cyano-2-fluoro-3-methoxybenzyl)-1-((8-cyano-6-cyclopropylimidazo[1,2-a]pyridin-2-yl)methyl)-1H-pyrazole-4-carboxamide] the EC50 was no more than 1 nM.
`COc1ccc(-n2ccnn2)c(CNC(=O)c2cn(Cc3cn4cc(C5CC5)ccc4n3)nn2)c1F` [Example I-76, 1-((6-cyclopropylimidazo[1,2-a]pyridin-2-yl)methyl)-N-(2-fluoro-3-methoxy-6-(1H-1,2,3-triazol-1-yl)benzyl)-1H-1,2,3-triazole-4-carboxamide] showed an EC50 of no more than 1 nM.
`Cc1c(Cl)ccc(-n2cnnn2)c1CNC(=O)c1cn(Cc2cn3cc(C4CC4)ccc3n2)nn1` [Example I-80, N-(3-chloro-2-methyl-6-(1H-tetrazol-1-yl)benzyl)-1-((6-cyclopropylimidazo[1,2-a]pyridin-2-yl)methyl)-1H-1,2,3-triazole-4-carboxamide] gave an EC50 of 100 to 2000 nM.
`O=C(NCc1cc(Cl)ccn1)c1cn(Cc2cn3cc(C4CC4)ccc3n2)nn1` [Example I-142, N-((4-chloropyridin-2-yl)methyl)-1-((6-cyclopropylimidazo[1,2-a]pyridin-2-yl)methyl)-1H-1,2,3-triazole-4-carboxamide] gave an EC50 of 2000 to 7100 nM.
Work on `O=C(NCCc1cccc(Br)c1)c1cnn(Cc2cn3cc(C4CC4)ccc3n2)c1` [Example I-132, N-(3-bromophenethyl)-1-((6-cyclopropylimidazo[1,2-a]pyridin-2-yl)methyl)-1H-pyrazole-4-carboxamide] yielded an EC50 of 100 to 2000 nM.
`COc1ccc(F)c(CNC(=O)c2cn(Cc3cn4cc(C5CC5)cc(CN)c4n3)nn2)c1F` [Example I-13, 1-((8-(aminomethyl)-6-cyclopropylimidazo[1,2-a]pyridin-2-yl)methyl)-N-(2,6-difluoro-3-methoxybenzyl)-1H-1,2,3-triazole-4-carboxamide] was tested, and the EC50 was 1 to 10 nM.
With `COc1ccc(-n2cnnn2)c(CNC(=O)c2cn(Cc3cn4cc(C5CC5)cc(CC5COC5)c4n3)nn2)c1F` [Example I-68, 1-((6-cyclopropyl-8-(oxetan-3-ylmethyl)imidazo[1,2-a]pyridin-2-yl)methyl)-N-(2-fluoro-3-methoxy-6-(1H-tetrazol-1-yl)benzyl)-1H-1,2,3-triazole-4-carboxamide] the EC50 was no more than 1 nM.
`O=C(NCc1c(C(F)F)ccc(Cl)c1F)c1cn(Cc2cn3cc(C4CC4)ccc3n2)nn1` [Example I-79, N-(3-chloro-6-(difluoromethyl)-2-fluorobenzyl)-1-((6-cyclopropylimidazo[1,2-a]pyridin-2-yl)methyl)-1H-1,2,3-triazole-4-carboxamide] showed an EC50 of 10 to 100 nM.
`COC(=O)c1ccc(-c2ccc(OC)c(F)c2CNC(=O)c2cn(Cc3cn4cc(C5CC5)ccc4n3)nn2)cc1` [Example I-87, Methyl 2′-((1-((6-cyclopropylimidazo[1,2-a]pyridin-2-yl)methyl)-1H-1,2,3-triazole-4-carboxamido)methyl)-3′-fluoro-4′-methoxy-[1,1′-biphenyl]-4-carboxylate] was tested, and the EC50 was 10 to 100 nM.
`COc1ccc(F)c(CNC(=O)c2cn(Cc3cn4cc(C5CC5)cc(COCCN(C)C)c4n3)nn2)c1F` [Example I-8, 1-((6-cyclopropyl-8-((2-(dimethylamino)ethoxy)methyl)imidazo[1,2-a]pyridin-2-yl)methyl)-N-(2,6-difluoro-3-methoxybenzyl)-1H-1,2,3-triazole-4-carboxamide] was tested, and the EC50 was 1 to 10 nM.
With `O=C(NCc1cc(=O)[nH]c2ccccc12)c1cnn(Cc2cn3cc(C4CC4)ccc3n2)c1` [Example I-120, 1-((6-cyclopropylimidazo[1,2-a]pyridin-2-yl)methyl)-N-((2-oxo-1,2-dihydroquinolin-4-yl)methyl)-1H-pyrazole-4-carboxamide] the EC50 was 10 to 100 nM.
With `COc1ccc(-n2cnnn2)c(CNC(=O)c2c(C)nn(Cc3cn4cc(C5CC5)ccc4n3)c2C)c1F` [Example I-15, 1-((6-cyclopropylimidazo[1,2-a]pyridin-2-yl)methyl)-N-(2-fluoro-3-methoxy-6-(1H-tetrazol-1-yl)benzyl)-3,5-dimethyl-1H-pyrazole-4-carboxamide] the EC50 was 100 to 2000 nM.
`O=C(NCc1cc2c(Cl)nccc2s1)c1cn(Cc2cn3cc(C4CC4)ccc3n2)nn1` [Example I-11, N-((4-chlorothieno[3,2-c]pyridin-2-yl)methyl)-1-((6-cyclopropylimidazo[1,2-a]pyridin-2-yl)methyl)-1H-1,2,3-triazole-4-carboxamide] showed an EC50 greater than 7100 nM.

Same assay, conditions: comparative compounds (Table III); 500 pM activated kallikrein format; read-out: Primary Dose Response Assay: Average EC50
`O=C(NCc1ncn2ccc(Cl)c(F)c12)c1cn(Cc2cn3ccccc3n2)nn1` showed an EC50 of 10 to 100 nM.
